{"source": "ChEMBL document CHEMBL1772973", "about": "“Design, synthesis, radiolabeling, and in vitro and in vivo evaluation of bridgehead iodinated analogues of N-{2-[4-(2-methoxyphenyl)piperazin-1-yl]ethyl}-N-(pyridin-2-yl)cyclohexanecarboxamide (WAY-100635) as potential SPECT ligands for the 5-HT1A receptor” (J Med Chem, 2011)", "format_in_all_cases": "ADME, organism-based", "key": {"Thyroid gland [1]": {"system": "Thyroid gland", "assay": "Biodistribution in Wistar rat thyroid assessed per organ at 7 MBq, iv after 120 mins", "conditions": "in vivo, 2 h"}, "Heart [2]": {"system": "Heart", "assay": "Biodistribution in Wistar rat heart at 7 MBq, iv after 15 mins", "conditions": "in vivo, 0.25 h"}, "Occipital cortex [3]": {"system": "Occipital cortex", "assay": "Biodistribution in Wistar rat occipital cortex at 7 MBq, iv after 15 mins", "conditions": "in vivo, 0.25 h"}, "Striatum [4]": {"system": "Striatum", "assay": "Biodistribution in Wistar rat striatum at 7 MBq, iv after 120 mins", "conditions": "in vivo, 2 h"}, "Striatum [5]": {"system": "Striatum", "assay": "Biodistribution in Wistar rat striatum at 7 MBq, iv after 15 mins", "conditions": "in vivo, 0.25 h"}, "Cerebellum [6]": {"system": "Cerebellum", "assay": "Biodistribution in Wistar rat cerebellum at 7 MBq, iv after 15 mins", "conditions": "in vivo, 0.25 h"}, "Hippocampus [7]": {"system": "Hippocampus", "assay": "Biodistribution in Wistar rat hippocampus at 7 MBq, iv after 120 mins", "conditions": "in vivo, 2 h"}, "Liver [8]": {"system": "Liver", "assay": "Biodistribution in Wistar rat liver at 7 MBq, iv after 120 mins", "conditions": "in vivo, 2 h"}, "Striatum [9]": {"system": "Striatum", "assay": "Biodistribution in Wistar rat striatum at 7 MBq, iv after 45 mins", "conditions": "in vivo, 0.75 h"}, "Cerebellum [10]": {"system": "Cerebellum", "assay": "Biodistribution in Wistar rat cerebellum at 7 MBq, iv after 120 mins", "conditions": "in vivo, 2 h"}, "Rattus norvegicus [11]": {"system": "Rattus norvegicus", "assay": "Biodistribution in Wistar rat frontal cortex at 7 MBq, iv after 45 mins", "conditions": "in vivo, 0.75 h"}, "Rattus norvegicus [12]": {"system": "Rattus norvegicus", "assay": "Biodistribution in Wistar rat rest cortex at 7 MBq, iv after 45 mins", "conditions": "in vivo, 0.75 h"}, "Blood [13]": {"system": "Blood", "assay": "Biodistribution in Wistar rat blood at 7 MBq, iv after 15 mins", "conditions": "in vivo, 0.25 h"}, "Occipital cortex [14]": {"system": "Occipital cortex", "assay": "Biodistribution in Wistar rat occipital cortex at 7 MBq, iv after 45 mins", "conditions": "in vivo, 0.75 h"}, "Blood [15]": {"system": "Blood", "assay": "Biodistribution in Wistar rat blood at 7 MBq, iv after 45 mins", "conditions": "in vivo, 0.75 h"}, "Rattus norvegicus [16]": {"system": "Rattus norvegicus", "assay": "Biodistribution in Wistar rat rest cortex at 7 MBq, iv after 15 mins", "conditions": "in vivo, 0.25 h"}, "Cerebellum [17]": {"system": "Cerebellum", "assay": "Biodistribution in Wistar rat cerebellum at 7 MBq, iv after 45 mins", "conditions": "in vivo, 0.75 h"}, "Rattus norvegicus [18]": {"system": "Rattus norvegicus", "assay": "Biodistribution in Wistar rat frontal cortex at 7 MBq, iv after 120 mins", "conditions": "in vivo, 2 h"}, "Rattus norvegicus [19]": {"system": "Rattus norvegicus", "assay": "Biodistribution in Wistar rat rest cortex at 7 MBq, iv after 120 mins", "conditions": "in vivo, 2 h"}, "Lung [20]": {"system": "Lung", "assay": "Biodistribution in Wistar rat lung at 7 MBq, iv after 120 mins", "conditions": "in vivo, 2 h"}, "Liver [21]": {"system": "Liver", "assay": "Biodistribution in Wistar rat liver at 7 MBq, iv after 15 mins", "conditions": "in vivo, 0.25 h"}, "Nucleic Acid [22]": {"system": "Nucleic Acid", "assay": "Ratio of drug level in cerebellum to frontal cortex in Wistar rat at 7 MBq, iv after 45 mins", "conditions": "in vivo, 0.75 h"}, "Lung [23]": {"system": "Lung", "assay": "Biodistribution in Wistar rat lung at 7 MBq, iv after 15 mins", "conditions": "in vivo, 0.25 h"}, "Nucleic Acid [24]": {"system": "Nucleic Acid", "assay": "Ratio of drug level in cerebellum to occipital cortex in Wistar rat at 7 MBq, iv after 45 mins", "conditions": "in vivo, 0.75 h"}, "Hippocampus [25]": {"system": "Hippocampus", "assay": "Biodistribution in Wistar rat hippocampus at 7 MBq, iv after 45 mins", "conditions": "in vivo, 0.75 h"}, "Liver [26]": {"system": "Liver", "assay": "Biodistribution in Wistar rat liver at 7 MBq, iv after 45 mins", "conditions": "in vivo, 0.75 h"}, "Lung [27]": {"system": "Lung", "assay": "Biodistribution in Wistar rat lung at 7 MBq, iv after 45 mins", "conditions": "in vivo, 0.75 h"}, "Hippocampus [28]": {"system": "Hippocampus", "assay": "Biodistribution in Wistar rat hippocampus at 7 MBq, iv after 15 mins", "conditions": "in vivo, 0.25 h"}, "Rattus norvegicus [29]": {"system": "Rattus norvegicus", "assay": "Biodistribution in Wistar rat frontal cortex at 7 MBq, iv after 15 mins", "conditions": "in vivo, 0.25 h"}, "Heart [30]": {"system": "Heart", "assay": "Biodistribution in Wistar rat heart at 7 MBq, iv after 120 mins", "conditions": "in vivo, 2 h"}, "Occipital cortex [31]": {"system": "Occipital cortex", "assay": "Biodistribution in Wistar rat occipital cortex at 7 MBq, iv after 120 mins", "conditions": "in vivo, 2 h"}, "Heart [32]": {"system": "Heart", "assay": "Biodistribution in Wistar rat heart at 7 MBq, iv after 45 mins", "conditions": "in vivo, 0.75 h"}, "Nucleic Acid [33]": {"system": "Nucleic Acid", "assay": "Ratio of drug level in cerebellum to striatum in Wistar rat at 7 MBq, iv after 45 mins", "conditions": "in vivo, 0.75 h"}, "Kidney [34]": {"system": "Kidney", "assay": "Biodistribution in Wistar rat kidney at 7 MBq, iv after 15 mins", "conditions": "in vivo, 0.25 h"}, "Blood [35]": {"system": "Blood", "assay": "Biodistribution in Wistar rat blood at 7 MBq, iv after 120 mins", "conditions": "in vivo, 2 h"}, "Kidney [36]": {"system": "Kidney", "assay": "Biodistribution in Wistar rat kidney at 7 MBq, iv after 120 mins", "conditions": "in vivo, 2 h"}, "Nucleic Acid [37]": {"system": "Nucleic Acid", "assay": "Ratio of drug level in cerebellum to hippocampus in Wistar rat at 7 MBq, iv after 45 mins", "conditions": "in vivo, 0.75 h"}, "Kidney [38]": {"system": "Kidney", "assay": "Biodistribution in Wistar rat kidney at 7 MBq, iv after 45 mins", "conditions": "in vivo, 0.75 h"}, "Thyroid gland [39]": {"system": "Thyroid gland", "assay": "Biodistribution in Wistar rat thyroid assessed per organ at 7 MBq, iv after 15 mins", "conditions": "in vivo, 0.25 h"}}, "data": [{"smiles": "O=C(N(CCN1CCN(c2ccccc2O)CC1)c1ccccn1)C12C3C4C1C1C2C3C41[123I]", "note": "(centres undefined)", "values": [{"measurement": "Drug uptake", "setting": "Thyroid gland [1]", "value": 0.25, "unit": "%ID"}, {"measurement": "Drug uptake", "setting": "Heart [2]", "value": 0.22, "unit": "% ID/g"}, {"measurement": "Drug uptake", "setting": "Occipital cortex [3]", "value": 0.37, "unit": "% ID/g"}, {"measurement": "Drug uptake", "setting": "Striatum [4]", "value": 0.03, "unit": "% ID/g"}, {"measurement": "Drug uptake", "setting": "Striatum [5]", "value": 0.23, "unit": "% ID/g"}, {"measurement": "Drug uptake", "setting": "Cerebellum [6]", "value": 0.25, "unit": "% ID/g"}, {"measurement": "Drug uptake", "setting": "Hippocampus [7]", "value": 0.05, "unit": "% ID/g"}, {"measurement": "Drug uptake", "setting": "Liver [8]", "value": 1.97, "unit": "% ID/g"}, {"measurement": "Drug uptake", "setting": "Striatum [9]", "value": 0.07, "unit": "% ID/g"}, {"measurement": "Drug uptake", "setting": "Cerebellum [10]", "value": 0.04, "unit": "% ID/g"}, {"measurement": "Drug uptake", "setting": "Rattus norvegicus [11]", "value": 0.11, "unit": "%ID"}, {"measurement": "Drug uptake", "setting": "Rattus norvegicus [12]", "value": 0.09, "unit": "% ID/g"}, {"measurement": "Drug uptake", "setting": "Blood [13]", "value": 0.18, "unit": "% ID/g"}, {"measurement": "Drug uptake", "setting": "Occipital cortex [14]", "value": 0.13, "unit": "% ID/g"}, {"measurement": "Drug uptake", "setting": "Blood [15]", "value": 0.2, "unit": "% ID/g"}, {"measurement": "Drug uptake", "setting": "Rattus norvegicus [16]", "value": 0.28, "unit": "% ID/g"}, {"measurement": "Drug uptake", "setting": "Cerebellum [17]", "value": 0.08, "unit": "% ID/g"}, {"measurement": "Drug uptake", "setting": "Rattus norvegicus [18]", "value": 0.04, "unit": "% ID/g"}, {"measurement": "Drug uptake", "setting": "Rattus norvegicus [19]", "value": 0.03, "unit": "% ID/g"}, {"measurement": "Drug uptake", "setting": "Lung [20]", "value": 0.19, "unit": "% ID/g"}, {"measurement": "Drug uptake", "setting": "Liver [21]", "value": 2.38, "unit": "% ID/g"}, {"measurement": "Ratio", "setting": "Nucleic Acid [22]", "value": 1.44}, {"measurement": "Drug uptake", "setting": "Lung [23]", "value": 0.59, "unit": "% ID/g"}, {"measurement": "Ratio", "setting": "Nucleic Acid [24]", "value": 1.73}, {"measurement": "Drug uptake", "setting": "Hippocampus [25]", "value": 0.18, "unit": "% ID/g"}, {"measurement": "Drug uptake", "setting": "Liver [26]", "value": 2.08, "unit": "% ID/g"}, {"measurement": "Drug uptake", "setting": "Lung [27]", "value": 0.3, "unit": "% ID/g"}, {"measurement": "Drug uptake", "setting": "Hippocampus [28]", "value": 0.44, "unit": "% ID/g"}, {"measurement": "Drug uptake", "setting": "Rattus norvegicus [29]", "value": 0.34, "unit": "% ID/g"}, {"measurement": "Drug uptake", "setting": "Heart [30]", "value": 0.12, "unit": "% ID/g"}, {"measurement": "Drug uptake", "setting": "Occipital cortex [31]", "value": 0.04, "unit": "% ID/g"}, {"measurement": "Drug uptake", "setting": "Heart [32]", "value": 0.14, "unit": "% ID/g"}, {"measurement": "Ratio", "setting": "Nucleic Acid [33]", "value": 0.93}, {"measurement": "Drug uptake", "setting": "Kidney [34]", "value": 5.54, "unit": "% ID/g"}, {"measurement": "Drug uptake", "setting": "Blood [35]", "value": 0.22, "unit": "% ID/g"}, {"measurement": "Drug uptake", "setting": "Kidney [36]", "value": 3.12, "unit": "% ID/g"}, {"measurement": "Ratio", "setting": "Nucleic Acid [37]", "value": 2.38}, {"measurement": "Drug uptake", "setting": "Kidney [38]", "value": 5.47, "unit": "% ID/g"}, {"measurement": "Drug uptake", "setting": "Thyroid gland [39]", "value": 0.28, "unit": "%ID"}]}]}
